According to PMC9120478 (Nature Communications, 2022):
Substitutions are numbered along the chain they refer to. Where “and” joins values, the source holds several entries; their conditions need not be identical. Equal values may be shown once. Read-outs that look alike come from different tables or passages of the source.

Legend:
[1] = molecular target: T1, F666A mutant TRPV3 (Mus musculus, UniProt Q8K424, F666A); assay: Fura-2 ratiometric Ca2+ measurement, activation by 2-APB; assay type: cell-based; conditions: for F340/F380 change normalized to approximated maximal value at saturating 2-APB: F666A
T1 construct: expressed in transfected cells; host or cells: HEK 293 S GnTI- cells (baculovirus transduction)
T1 sequence (Q8K424 1-791 F666A): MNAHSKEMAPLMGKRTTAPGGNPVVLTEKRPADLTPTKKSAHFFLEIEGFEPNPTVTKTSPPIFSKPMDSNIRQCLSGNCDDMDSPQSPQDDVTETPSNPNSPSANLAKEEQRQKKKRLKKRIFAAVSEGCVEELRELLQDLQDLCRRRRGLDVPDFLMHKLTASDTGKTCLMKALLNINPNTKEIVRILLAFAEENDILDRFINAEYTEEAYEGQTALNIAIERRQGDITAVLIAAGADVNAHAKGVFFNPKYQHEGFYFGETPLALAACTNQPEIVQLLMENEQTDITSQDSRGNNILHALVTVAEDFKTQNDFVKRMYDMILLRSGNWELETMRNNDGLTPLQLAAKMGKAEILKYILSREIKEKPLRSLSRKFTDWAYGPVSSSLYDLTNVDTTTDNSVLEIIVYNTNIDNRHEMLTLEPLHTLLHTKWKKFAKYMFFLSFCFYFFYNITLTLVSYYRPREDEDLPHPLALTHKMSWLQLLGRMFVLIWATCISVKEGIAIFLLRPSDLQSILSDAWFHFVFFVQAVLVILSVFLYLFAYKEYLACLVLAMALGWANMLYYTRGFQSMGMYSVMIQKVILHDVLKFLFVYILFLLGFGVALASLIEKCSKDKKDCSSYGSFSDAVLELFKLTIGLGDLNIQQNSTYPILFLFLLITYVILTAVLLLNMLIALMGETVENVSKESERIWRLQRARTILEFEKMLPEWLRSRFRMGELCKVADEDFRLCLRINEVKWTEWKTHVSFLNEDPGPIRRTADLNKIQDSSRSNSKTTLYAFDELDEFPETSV
Method: GFP-free C-terminally strep-tagged wild-type TRPV3, TRPV3-Y564A, TRPV3-Y594A, TRPV3-F633A, TRPV3-I663W, and TRPV3-F666A were expressed in HEK 293 S GnTI^− cells as previously described[41],[42],[53]. In short, 48 h after transduction, 1-ml aliquots of cell suspension were collected by centrifugation at 550 g for 5 min using an Eppendorf 5424 centrifuge. The cells were resuspended in the pre-warmed modified HEPES-buffered saline (HBS) containing 118 mM NaCl, 4.8 mM KCl, 1 mM MgCl2, 5 mM D-glucose, and 10 mM HEPES pH 7.4 and 5 μg/ml Fura-2 AM (Thermo Fisher Scientific) and incubated for 45 min at 37 °C. The Fura-2-loaded cells were then centrifuged for 5 min at 550 g, resuspended in the pre-warmed, modified HBS and incubated again for 30 min at 37 °C in the dark. The cells were subsequently pelleted and washed twice in the modified HBS. The washed cell pellets were kept on ice in the dark before taking an aliquot for fluorescence measurements. […] We used the lower CaCl2 concentration than before[42],[28] (2.5 mM) to minimize non-specific effects, which often appeared as a drift in the Fura-2 signal at high Ca^2+ concentration, presumably due to cell death as a result of calcium overload. Fluorescence measurements were conducted using a QuantaMaster 40 spectrofluorometer (Photon Technology International) at room temperature in a quartz cuvette under constant stirring. After 60 s since the beginning, the recording was paused and 2-APB was added. After the addition of 2-APB, the recording was continued for the additional 140 s. Changes in intracellular Ca^2+ were measured by taking the ratio of fluorescence emitted at 510 nm at the excitation wavelength of 340 nm and 380 nm. […] The data were processed using Origin 9.0 (OriginLab) software.

[2] = molecular target: T2, TRPV3-Y594A (Mus musculus, UniProt Q8K424, Y594A); assay: Fura-2 ratiometric Ca2+ measurement, control application of 2-APB; assay type: cell-based
T2 construct: expressed in transfected cells; host or cells: HEK 293 S GnTI- cells (baculovirus transduction)
T2 sequence (Q8K424 1-791 Y594A): T1 sequence (Q8K424 1-791 F666A) with Y594A, A666F
Description: The portal site in TRPV3 has not been previously shown to bind small-molecule inhibitors. This site, however, was originally proposed to be an entry pathway for local anesthetics to the pore of sodium channels[47]–[49] and found to accommodate cannabidiol in TRPV2, a closely-related representative of the vanilloid subfamily of TRP channels. […] We concluded that the Y594A mutation altered gating properties of TRPV3 and excluded this mutant from further analysis.
GFP-free C-terminally strep-tagged wild-type TRPV3, TRPV3-Y564A, TRPV3-Y594A, TRPV3-F633A, TRPV3-I663W, and TRPV3-F666A were expressed in HEK 293 S GnTI^− cells as previously described[41],[42],[53]. In short, 48 h after transduction, 1-ml aliquots of cell suspension were collected by centrifugation at 550 g for 5 min using an Eppendorf 5424 centrifuge. […] The washed cell pellets were kept on ice in the dark before taking an aliquot for fluorescence measurements. […] Fluorescence measurements were conducted using a QuantaMaster 40 spectrofluorometer (Photon Technology International) at room temperature in a quartz cuvette under constant stirring. […] Changes in intracellular Ca^2+ were measured by taking the ratio of fluorescence emitted at 510 nm at the excitation wavelength of 340 nm and 380 nm. […]

[3] = test system: wild-type TRPV3; conditions: cited from earlier work; for F340/F380 change normalized to approximated maximal value at saturating 2-APB: WT, published before

## NCCOB(c1ccccc1)c1ccccc1 [2-APB]
[1]; 2-APB Conc 0.1, single experiments
  F340/F380 change normalized to approximated maximal value at saturating 2-APB: 0.01591 and 0.01218 and 0.01441
[1]; 2-APB Conc 0.3, single experiments
  F340/F380 change normalized to approximated maximal value at saturating 2-APB: 0.0415 and 0.03827 and 0.03455
[1]; 2-APB Conc 1, single experiments
  F340/F380 change normalized to approximated maximal value at saturating 2-APB: 0.08549 and 0.07903 and 0.08027
[1]; 2-APB Conc 3, single experiments
  F340/F380 change normalized to approximated maximal value at saturating 2-APB: 0.1735 and 0.1693 and 0.1578
[1]; 2-APB Conc 10, single experiments
  F340/F380 change normalized to approximated maximal value at saturating 2-APB: 0.3611 and 0.3532 and 0.3454
[1]; 2-APB Conc 30, single experiments
  F340/F380 change normalized to approximated maximal value at saturating 2-APB: 0.6328 and 0.6126 and 0.5903
[1]; 2-APB Conc 100, single experiments
  F340/F380 change normalized to approximated maximal value at saturating 2-APB: 0.7746 and 0.7881 and 0.7839
[1]; 2-APB Conc 300, single experiments
  F340/F380 change normalized to approximated maximal value at saturating 2-APB: 0.7811 and 0.756 and 0.8326
[1]; n = 3
  nHill of activation curve, F666A: 0.80 ± 0.02
[1]; n = 3, read-out: EC50, 2-APB-induced activation of F666A
  EC50: 20.7 ± 0.9 µM
[2]
  change in F340/F380 on control application of 2-APB, Y594A: barely detectable changes
[3]; 2-APB Conc 3.2, single experiments
  F340/F380 change normalized to approximated maximal value at saturating 2-APB: 0.1142 and 0.08511 and 0.06324 and 0.1042
[3]; 2-APB Conc 102.4, single experiments
  F340/F380 change normalized to approximated maximal value at saturating 2-APB: 0.8797 and 0.5873 and 0.8594 and 0.9531
[3]; 2-APB Conc 204.8, single experiments
  F340/F380 change normalized to approximated maximal value at saturating 2-APB: 0.97 and 1 and 0.6572 and 1.041
[3]; n = 4, published before
  nHill of activation curve, wild-type TRPV3: 1.19 ± 0.09
[3]; n = 4, published before, read-out: EC50, 2-APB-induced activation of wild-type TRPV3
  EC50: 27.4 ± 4.5 µM
